The record followed here is patent publication US6265402A, “Use of 2-phenylmorpholin-5-one derivatives” (Nikken Chemicals Co., Ltd., priority 1996, dated 2001).

One assay relates to Type IV PDE. The assay can be described thus: Type IV PDE inhibitory activity. The format is biochemical. The conditions noted are these: Type IV PDE partially purified from rat neutrophils; 3H-cAMP substrate, 30° C., 30 minutes. Here is the method: Type I, III, IV, and V PDE isozymes were prepared to study the PDE inhibitory activities of and selectivities with the compound of the invention [Trends Pharmacol Sci., 12, 19-27 (1992)]. Type I PDE was purchased from Sigma Corp. Type III, IV, and V PDE isozymes were partially purified from platelets (Type III and V) or neutrophils (Type IV) collected from rats. Each enzyme source was homogenized in a buffer (pH 6.5) containing 20 mM bisTris, 2 mM EDTA (i.e., ethylenediamine tetraacetate), 0.1 mM PMSF (i.e., phenylmethylsulfonyl fluoride), 5 mM 2-mercaptoethanol, 0.001 mM pepstatin and 0.01 mM leupeptin and was centrifuged at 30000×G for 30 minutes to obtain a supernatant, which was applied to an ion exchange column (Q-sepharose First Flow, Pharmacia Corp.) and was eluted with 0 to 1M sodium acetate. Partially purified isozymes were identified by observing the effects by conventional inhibitors.
Each PDE isozyme and the test compound dissolved in DMSO (i.e., dimethyl sulfoxide) were added to 50 mM Tris-HCl buffer containing 5 mM magnesium chloride. ^3 H-cAMP (for type III and IV PDE) or ^3 H-cGMP (for type I and V PDE) were added as substrates and were reacted at 30° C. for 30 minutes. The reaction was terminated by placing the test tube in boiling water of 100° C. for 5 minutes. The nucleotides formed by PDE were broken down by 5'-nucleotidase to ^3 H-adenosine or 3H-guanosine. The unreacted substrate and reaction product were separated through an ion-exchange column (i.e., QAE sephadex, Pharmacia Corp.) The eluted ^3 H-nucleoside was measured for its radioactivity by a liquid scintillation counter. The inhibitory activities of the compound of the present invention are shown by the IC50 value (M). Further, the inhibitory activities of the test samples against Type I, III, and V are 1/10 or less than that against type IV.

Assay [1] relates to antigen-induced bronchospasms. The assay can be described thus: Inhibitory effect on Antigen-Induced Bronchospasm (Anti-Asthmatic action). The format is in vivo. The conditions noted are these: Cavia porcellus; Hartley male guinea pig sensitized with Ovalbumin; intravenous, 10 minutes before 0.2 mg/kg OA i.v.; Konzett-Roessler method; read-out: Action for suppressing antigen-induced bronchospasms ED50. On the procedure: Inhibitory effect on Antigen-Induced Bronchospasm (Anti-Asthmatic action)
A Hartley male guinea pig was sensitized by intramuscular administration of 35 mg Ovalbumin (OA) on first day and fourth day. A tracheal canula was introduced in the guinea pig anesthetized with pentobarbital and artificial ventilation was performed 25 to 29 days after the first sensitization. The overflow of the ventilation was measured by the Konzett-Roessler method while 0.2 mg/kg OA were administered intravenously. The test compound was dissolved in polyethylene glycol 400 and intravenously administered 10 minutes before administration of the antigens.

For the next assay, the system named is rat neutrophils. The assay can be described thus: Inhibitory action of super oxide anion release from rat neutrophils. Format: cell-based. To be noted: Neutrophil, stimulation with 0.3 μM calcium ionophore A23187, chemiluminescence, Lusigenin. Here is the method:
Inhibitory effects on activity of rat neutrophils
The release of super oxide anions was measured so as to study the inhibitory effects of the compound of the present invention on inflammatory leukocytes, that is, neutrophils.
Blood sample was collected from Wister rats anesthetized with ether. It was superposed on a blood cell separation solution (Polymorphoprep 1.113, made by Naicomed Farm), and the neutrophils were separated by centrifugation. The neutrophils were resuspended in a Hank's balanced salt solution at a concentration of 0.5×10^4 cells/ml 0.1 mM of Lusigenin and the test substance dissolved in DMSO were added to 2 ml of the cell-suspension. The chemiluminescence generated by stimulation of 0.3 μM calcium ionophore A23187 was measured by a chemiluminescence reader so as to evaluate the release of super oxide anions.

Consider `COc1ccc(C2(C)CNC(=O)CO2)cc1OC1Cc2ccccc2C1` (stereo not shown) [Compound No. 27, 2-[3-(2-indanyloxy)-4-methoxyphenyl]-2-methylmorpholin-5-one], for which the IC50 – broadly, the midpoint of a concentration-inhibition curve – in the assay on Type IV PDE came out at 0.13 µM. Also, the ED50 (usually the dose at which the effect has come halfway, by size or by number of responders) in assay [1] was 7.99 mg/kg.

Compound `COc1ccc(C2CNC(=O)CO2)cc1OCC1CCC1` (stereo not shown) [Compound No. 38, 2-(3-cyclobutylmethoxy-4-methoxyphenyl)morpholin-5-one] returned an IC50 with Type IV PDE of 4.6 µM. Also, the ED50 in assay [1] was determined as 7.83 mg/kg.

For the compound `COc1ccc(C2CNC(=O)CO2)cc1OCC(C)C` (stereo not shown) [Compound No. 39, 2-[3-(2-methylpropoxy)-4-methoxyphenyl]morpholin-5-one], in the assay with Type IV PDE, inhibition was half-maximal at 7.8 µM (IC50). Further, the ED50 in assay [1] turned out to be 8.04 mg/kg.

As for `COc1ccc(C2CN(C)C(=O)CO2)cc1OC1CCCC1` (stereo not shown) [Compound No. 14, 2-(3-cyclopentyloxy-4-methoxyphenyl)-4-methylmorpholin-5-one], the IC50 with Type IV PDE was determined as 0.31 µM. The ED50 in assay [1] came out at 2.1 mg/kg.

`COc1ccc(C2CN(Cc3ccc(Br)cc3)C(=O)CO2)cc1OC1CCCC1` (stereo not shown) [Compound No. 13, 4-(4-bromobenzyl)-2-(3-cyclopentyloxy-4-methoxyphenyl)morpholin-5-one]: the IC50 in the assay with Type IV PDE stood at 1.8 µM; in the assay with rat neutrophils, 1.4 µM.

In the assay with Type IV PDE, `COc1ccc(C2CNC(=O)CO2)cc1OCC1(C)CC1` (stereo not shown) [Compound No. 35, 2-[3-[(1-methylcyclopropyl)methoxy]-4-methoxyphenyl]morpholin-5-one] registered an IC50 of 1.3 µM. Moreover, the ED50 in assay [1] is 6.22 mg/kg.

For the compound `COc1ccc(C2(C)CNC(=O)CO2)cc1OC` (stereo not shown) [Compound No. 9, 2-(3,4-dimethoxyphenyl)-2-methylmorpholin-5-one], the half-maximal inhibitory concentration (IC50) stood at 16 µM in the assay on Type IV PDE and 1.6 µM in the assay with rat neutrophils.

Take `COc1ccc(C2CNC(=O)CO2)cc1OC1CCCC1` (stereo not shown) [Compound No. 2, 2-(3-cyclopentyloxy-4-methoxyphenyl)morpholin-5-one]: the results for the IC50 in the assay with Type IV PDE and in the assay with rat neutrophils were 1.5 µM and 5.8 µM, respectively. Moreover, in assay [1], the ED50 stood at 0.48 mg/kg.

As for `COc1ccc(C2CNC(=O)CO2)cc1OC` (stereo not shown) [Compound No. 1, 2-(3,4-dimethoxyphenyl)morpholin-5-one], the half-inhibitory concentration (IC50) was 37 µM in the assay on Type IV PDE and 29 µM in the assay on rat neutrophils.

In turn, `CCCCOc1cc(C2CNC(=O)CO2)ccc1OC` (stereo not shown) [Compound No. 5, 2-(3-butoxy-4-methoxyphenyl)morpholin-5-one] had an IC50 in the assay with Type IV PDE of 12 µM. The ED50 in assay [1] came out at 3.6 mg/kg.

The compound `COc1ccc(C2CNC(=O)CO2)cc1OCC1CCCC1` (stereo not shown) [Compound No. 36, 2-(3-cyclopentylmethoxy-4-methoxyphenyl)morpholin-5-one] gave a half-inhibitory concentration (IC50) in the assay on Type IV PDE of 6.9 µM. Besides, in assay [1], the ED50 is 1 mg/kg.

For `COc1ccc(C2CNC(=O)CO2)cc1OCC1CC1` (stereo not shown) [Compound No. 8, 2-(3-cyclopropylmethoxy-4-methoxyphenyl)morpholin-5-one], the IC50 in the assay with Type IV PDE came out at 2.5 µM. Besides, the ED50 in assay [1] was determined as 4.31 mg/kg.
